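These data come from cells grown in 96-well plates and exposed to compound for 48 hours at five concentrations. GI50 = concentration required for 50% inhibition of growth. Definition used: TGI = concentration required for complete inhibition of growth.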
What was measured:
Assay in all cases: inhibition of tumour cell growth, NCI panel, 48 h
NCI/ADR-RES ovarian = tested on: NCI/ADR-RES ovarian
MDA-MB-435 = tested on: MDA-MB-435
HCC-2998 colon = tested on: HCC-2998 colon
ACHN renal = tested on: ACHN renal
CAKI-1 renal = tested on: CAKI-1 renal
COLO 205 colon = tested on: COLO 205 colon
SNB-19 CNS = tested on: SNB-19 CNS
HOP-62 NSCLC = tested on: HOP-62 NSCLC
DU-145 prostate = tested on: DU-145 prostate
RPMI-8226 leukemia = tested on: RPMI-8226 leukemia
CCRF-CEM leukemia = tested on: CCRF-CEM leukemia
UACC-257 melanoma = tested on: UACC-257 melanoma
T-47D breast = tested on: T-47D breast
HL-60(TB) leukemia = tested on: HL-60(TB) leukemia
NCI-H23 lung = tested on: NCI-H23 lung
BT-549 breast = tested on: BT-549 breast
UO-31 renal = tested on: UO-31 renal
SF-539 CNS = tested on: SF-539 CNS
SK-OV-3 ovarian = tested on: SK-OV-3 ovarian
SNB-75 CNS = tested on: SNB-75 CNS
HS 578T breast = tested on: HS 578T breast
MALME-3M melanoma = tested on: MALME-3M melanoma
SF-295 CNS = tested on: SF-295 CNS
K-562 leukemia = tested on: K-562 leukemia
OVCAR-4 ovarian = tested on: OVCAR-4 ovarian
NCI-H226 lung = tested on: NCI-H226 lung
786-0 renal = tested on: 786-0 renal
SK-MEL-5 melanoma = tested on: SK-MEL-5 melanoma
MCF7 breast = tested on: MCF7 breast
HCT-15 colon = tested on: HCT-15 colon
SK-MEL-2 melanoma = tested on: SK-MEL-2 melanoma
UACC-62 melanoma = tested on: UACC-62 melanoma
OVCAR-5 ovarian = tested on: OVCAR-5 ovarian
A549 NSCLC = tested on: A549 NSCLC
KM12 colon = tested on: KM12 colon
SK-MEL-28 melanoma = tested on: SK-MEL-28 melanoma
MDA-MB-231 breast = tested on: MDA-MB-231 breast
HT29 colon = tested on: HT29 colon
NCI-H460 lung = tested on: NCI-H460 lung
TK-10 renal = tested on: TK-10 renal
HCT-116 colon = tested on: HCT-116 colon
PC-3 prostate = tested on: PC-3 prostate
NCI-H522 lung = tested on: NCI-H522 lung
U251 CNS = tested on: U251 CNS
SR leukemia = tested on: SR leukemia
EKVX NSCLC = tested on: EKVX NSCLC
RXF 393 renal = tested on: RXF 393 renal
SW-620 colon = tested on: SW-620 colon
SN12C renal = tested on: SN12C renal
HOP-92 NSCLC = tested on: HOP-92 NSCLC
M14 melanoma = tested on: M14 melanoma
MOLT-4 leukemia = tested on: MOLT-4 leukemia
A498 renal = tested on: A498 renal
SF-268 CNS = tested on: SF-268 CNS
OVCAR-8 ovarian = tested on: OVCAR-8 ovarian
IGROV1 ovarian = tested on: IGROV1 ovarian

SMILES: Nc1ccccc1NC(=O)c1ccc(NC(=O)C/C=C/c2cccnc2)cc1
- GI50 (NCI/ADR-RES ovarian): 3230 nM
- TGI (NCI/ADR-RES ovarian): > 50000 nM
- GI50 (MDA-MB-435): 1390 nM
- TGI (MDA-MB-435): 8020 nM
- GI50 (HCC-2998 colon): 953 nM
- TGI (HCC-2998 colon): 4540 nM
- GI50 (ACHN renal): 2240 nM
- TGI (ACHN renal): > 50000 nM
- GI50 (CAKI-1 renal): 2390 nM
- TGI (CAKI-1 renal): > 50000 nM
- GI50 (COLO 205 colon): 813 nM
- TGI (COLO 205 colon): 7100 nM
- GI50 (SNB-19 CNS): 2250 nM
- TGI (SNB-19 CNS): > 50000 nM
- GI50 (HOP-62 NSCLC): 2000 nM
- TGI (HOP-62 NSCLC): > 50000 nM
- GI50 (DU-145 prostate): 905 nM
- TGI (DU-145 prostate): 2970 nM
- GI50 (RPMI-8226 leukemia): 605 nM
- TGI (RPMI-8226 leukemia): 5570 nM
- GI50 (CCRF-CEM leukemia): 225 nM
- TGI (CCRF-CEM leukemia): > 50000 nM
- GI50 (UACC-257 melanoma): 1230 nM
- TGI (UACC-257 melanoma): > 50000 nM
- GI50 (T-47D breast): 623 nM
- TGI (T-47D breast): > 50000 nM
- GI50 (HL-60(TB) leukemia): 448 nM
- TGI (HL-60(TB) leukemia): > 50000 nM
- GI50 (NCI-H23 lung): 1550 nM
- TGI (NCI-H23 lung): 26600 nM
- GI50 (BT-549 breast): 1170 nM
- TGI (BT-549 breast): 4720 nM
- GI50 (UO-31 renal): 1540 nM
- TGI (UO-31 renal): > 50000 nM
- GI50 (SF-539 CNS): 181 nM
- TGI (SF-539 CNS): 26400 nM
- GI50 (SK-OV-3 ovarian): 2400 nM
- TGI (SK-OV-3 ovarian): > 50000 nM
- GI50 (SNB-75 CNS): 1260 nM
- TGI (SNB-75 CNS): > 50000 nM
- GI50 (HS 578T breast): 1660 nM
- TGI (HS 578T breast): > 50000 nM
- GI50 (MALME-3M melanoma): 247 nM
- TGI (MALME-3M melanoma): 3560 nM
- GI50 (SF-295 CNS): 1670 nM
- TGI (SF-295 CNS): 11300 nM
- GI50 (K-562 leukemia): 289 nM
- TGI (K-562 leukemia): > 50000 nM
- GI50 (OVCAR-4 ovarian): 3680 nM
- TGI (OVCAR-4 ovarian): > 50000 nM
- GI50 (NCI-H226 lung): 1430 nM
- TGI (NCI-H226 lung): > 50000 nM
- GI50 (786-0 renal): 2740 nM
- TGI (786-0 renal): > 50000 nM
- GI50 (SK-MEL-5 melanoma): 957 nM
- TGI (SK-MEL-5 melanoma): 1910 nM
- GI50 (MCF7 breast): 1090 nM
- TGI (MCF7 breast): 8320 nM
- GI50 (HCT-15 colon): 1320 nM
- TGI (HCT-15 colon): > 50000 nM
- GI50 (SK-MEL-2 melanoma): 2390 nM
- TGI (SK-MEL-2 melanoma): > 50000 nM
- GI50 (UACC-62 melanoma): 1060 nM
- TGI (UACC-62 melanoma): 4980 nM
- GI50 (OVCAR-5 ovarian): 803 nM
- TGI (OVCAR-5 ovarian): > 50000 nM
- GI50 (A549 NSCLC): 2800 nM
- TGI (A549 NSCLC): > 50000 nM
- GI50 (KM12 colon): 8480 nM
- TGI (KM12 colon): > 50000 nM
- GI50 (SK-MEL-28 melanoma): 962 nM
- TGI (SK-MEL-28 melanoma): 2650 nM
- GI50 (MDA-MB-231 breast): 6420 nM
- TGI (MDA-MB-231 breast): > 50000 nM
- GI50 (HT29 colon): 1170 nM
- TGI (HT29 colon): > 50000 nM
- GI50 (NCI-H460 lung): 1450 nM
- TGI (NCI-H460 lung): > 50000 nM
- GI50 (TK-10 renal): 103 nM
- TGI (TK-10 renal): > 50000 nM
- GI50 (HCT-116 colon): 176 nM
- TGI (HCT-116 colon): 4370 nM
- GI50 (PC-3 prostate): 1260 nM
- TGI (PC-3 prostate): > 50000 nM
- GI50 (NCI-H522 lung): 513 nM
- TGI (NCI-H522 lung): > 50000 nM
- GI50 (U251 CNS): 1040 nM
- TGI (U251 CNS): > 50000 nM
- GI50 (SR leukemia): 382 nM
- TGI (SR leukemia): > 50000 nM
- GI50 (EKVX NSCLC): 2250 nM
- TGI (EKVX NSCLC): > 50000 nM
- GI50 (RXF 393 renal): 784 nM
- TGI (RXF 393 renal): 3860 nM
- GI50 (SW-620 colon): 231 nM
- TGI (SW-620 colon): > 50000 nM
- GI50 (SN12C renal): 320 nM
- TGI (SN12C renal): > 50000 nM
- GI50 (HOP-92 NSCLC): 341 nM
- TGI (HOP-92 NSCLC): 8330 nM
- GI50 (M14 melanoma): 1370 nM
- TGI (M14 melanoma): > 50000 nM
- GI50 (MOLT-4 leukemia): 1050 nM
- TGI (MOLT-4 leukemia): > 50000 nM
- GI50 (A498 renal): 586 nM
- TGI (A498 renal): 2290 nM
- GI50 (SF-268 CNS): 1930 nM
- TGI (SF-268 CNS): > 50000 nM
- GI50 (OVCAR-8 ovarian): 159 nM
- TGI (OVCAR-8 ovarian): > 50000 nM
- GI50 (IGROV1 ovarian): 1140 nM
- TGI (IGROV1 ovarian): > 50000 nM
